Results taken from ChEMBL document CHEMBL5352457, “Discovery of orally active 1,4,5,6,8-pentaazaacenaphthylens as novel, selective, and potent covalent BTK inhibitors for the treatment of rheumatoid arthritis” (Eur J Med Chem, 2023).
≈ marks a conversion by molar mass, not a printed value.

Key:
physchem [1] = conditions: buffer, pH 7
in vivo [2] = conditions: Sprague-Dawley, rat, po, 10 mg/kg
in vivo [3] = conditions: Sprague-Dawley, rat, plasma, po, 10 mg/kg
in vivo [4] = conditions: Sprague-Dawley, rat, po, 10 mg/kg; remark: listed apart in the source
in vivo [5] = conditions: Sprague-Dawley, rat, iv, 1 mg/kg
in vivo [6] = conditions: Sprague-Dawley, rat, po, 10 mg/kg; remark: listed apart in the source
in vivo [7] = conditions: Sprague-Dawley, rat, iv, 1 mg/kg; remark: listed apart in the source
in vivo [8] = conditions: Sprague-Dawley, rat, po, 10 mg/kg; remark: listed apart in the source
in vivo [9] = conditions: Sprague-Dawley, rat, iv, 1 mg/kg; remark: listed apart in the source
physchem [10] = conditions: buffer, pH 7.4

## C=CC(=O)N1CC[C@@H](N2N=C(Nc3ccc(Oc4ccccc4)cc3)c3c[nH]c4ncnc2c34)C1
Physchem [1]
  solubility: 174 µM (≈ 81 µg/mL)
In vivo [2]
  Cmax at 24 h: 52.5 ng/mL
In vivo [3]
  concentration at 1 h: 125 nM
In vivo [4]
  bioavailability at 24 h: 3.6%
In vivo [5]
  clearance at 24 h: 36.8 mL/min/kg
In vivo [6]
  AUC at 24 h: 164 ng·h/mL
In vivo [7]
  Vd at 24 h: 1.67 L/kg
In vivo [8]
  Tmax at 24 h: 1 h
In vivo [9]
  AUC at 24 h: 454 ng·h/mL
Physchem [10]
  remaining at 24 h: 80.2%
